This passage reports EC50 results from US20090170846A1, “INHIBITORS OF THE HIV INTEGRASE ENZYME” (Pfizer Inc, priority 2005, published 2009).

This experiment deals with RF strain of HIV-1 in CEM-SS cells. Kind of experiment: HIV-1 cell protection assay (XTT dye reduction). It is filed as cell-based. The following applies: Human immunodeficiency virus 1, 144 h; HIV-1 RF, CEM-SS cells, XTT, six days; read-out: EC50. As to the method:
HIV-1 Cell Protection Assay
The antiviral activities of potential modulator compounds (test compounds) were determined in HIV-1 cell protection assays using the RF strain of HIV-1, CEM-SS cells, and the XTT dye reduction method (Weislow, O, S. et al., J. Natl. Cancer Inst 81: 577-586 (1989)). Subject cells were infected with HIV-1 RF virus at an moi of to affect about a 90% kill (for example, an moi in the range of from about 0.025 to about 0.819) or mock infected with medium only and added at 2×10^4 cells per well, with the addition of approximately 200 μL of medium, into 96 well plates containing half-log dilutions of test compounds. Six days later, 50 μl of XTT solution (1 mg/ml XTT tetrazolium and 20 nM phenazine methosulfate) were added to the wells and the plates were reincubated for four hours. Viability, as determined by the amount of XTT formazan produced, was quantified spectrophotometrically by absorbance at 450 nm.
Data from CPE assays were expressed as the percent of formazan produced in compound-treated cells compared to formazan produced in wells of uninfected, compound-free cells. The fifty percent effective concentration (EC50) was calculated as the concentration of compound that affected an increase in the percentage of formazan production in infected, compound-treated cells to 50% of that produced by uninfected, compound-free cells. The 50% cytotoxicity concentration (CC50) was calculated as the concentration of compound that decreased the percentage of formazan produced in uninfected, compound-treated cells to 50% of that produced in uninfected, compound-free cells. The therapeutic index was calculated by dividing the cytotoxicity (CC50) by the antiviral activity (EC50).
On the technique in general: Tetrazolium assays rely on reduction of a dye to a coloured formazan, in cell work by metabolically active cells.

What is called EC50 is the concentration that produces a half-maximal response. Consider `CN(O)C(=O)c1cc2c(S(=O)(=O)N(C)CC3COCCO3)cn(Cc3ccc(F)cc3)c2cn1` (stereo not shown) [Example 56, 3-{[(1,4-dioxan-2-ylmethyl)(methyl)amino]sulfonyl}-1-(4-fluorobenzyl)-N-hydroxy-N-methyl-1H-pyrrolo[2,3-c]pyridine-5-carboxamide], for which the EC50 stood at 400 nM. With `CN(O)C(=O)c1cc2c(S(=O)(=O)N3CCOCC3)cn(Cc3ccc(F)cc3)c2cn1` [Example 57, 1-(4-fluorobenzyl)-N-hydroxy-N-methyl-3-(morpholin-4-ylsulfonyl)-1H-pyrrolo[2,3-c]pyridine-5-carboxamide], the half-maximal effective concentration (EC50) was 480 nM. Under `COc1ncccc1NS(=O)(=O)c1cn(Cc2ccc(F)cc2)c2cnc(C(=O)N(C)O)cc12` [Example 53, 1-(4-fluorobenzyl)-N-hydroxy-3-{((2-methoxypyridin-3-yl)amino]sulfonyl}-N-methyl-1H-pyrrolo[2,3-c]pyridine-5-carboxamide] stands 140 nM; under `CONC(=O)c1cc2c(S(=O)(=O)NCCCO)cn(Cc3ccc(F)cc3)c2cn1` [Example 51, 1-(4-fluorobenzyl)-3-{[(3-hydroxypropyl)amino]sulfonyl}-N-methoxy-1H-pyrrolo[2,3-c]pyridine-5-carboxamide], 110 nM. Under `CCN(CC)S(=O)(=O)c1cn(Cc2ccc(F)cc2)c2cnc(C(=O)NOC)cc12` [Example 49, 3-[(diethylamino)sulfonyl]-1-(4-fluorobenzyl)-N-methoxy-1H-pyrrolo[2,3-c]pyridine-5-carboxamide] stands 17 nM; under `CONC(=O)c1cc2c(S(=O)(=O)N(C)CC3COCCO3)cn(Cc3ccc(F)cc3)c2cn1` (stereo not shown) [Example 54, 3-{[(1,4-dioxan-2-ylmethyl)(methyl)amino]sulfonyl}-1-(4-fluorobenzyl)-N-methoxy-1H-pyrrolo[2,3-c]pyridine-5-carboxamide], 48 nM; under `CC(=O)Nc1cn(Cc2ccc(F)cc2)c2cnc(C(=O)N(C)O)cc12` [Example 2, 3-(acetylamino)-1-(4-fluorobenzyl)-N-hydroxy-N-methyl-1H-pyrrolo[2,3-c]pyridine-5-carboxamide], 20 nM. Under `CONC(=O)c1cc2c(S(=O)(=O)N3CCOCC3)cn(Cc3ccc(F)cc3)c2cn1` [Example 55, 1-(4-fluorobenzyl)-N-methoxy-3-(morpholin-4-ylsulfonyl)-1H-pyrrolo[2,3-c]pyridine-5-carboxamide] stands 25 nM; under `CONC(=O)c1cc2c(S(=O)(=O)Nc3cccnc3OC)cn(Cc3ccc(F)cc3)c2cn1` [Example 52, 1-(4-fluorobenzyl)-N-methoxy-3-{[(2-methoxypyridin-3-yl)amino]sulfonyl}-1H-pyrrolo[2,3-c]pyridine-5-carboxamide], 52 nM; under `CN(O)C(=O)c1cc2c(S(=O)(=O)NCCCO)cn(Cc3ccc(F)cc3)c2cn1` [Example 50, 1-(4-fluorobenzyl)-N-hydroxy-3-{[(3-hydroxypropyl)amino]sulfonyl}-N-methyl-1H-pyrrolo[2,3-c]pyridine-5-carboxamide], 460 nM.
